Measured values published in US12643867B2, “Compositions and uses thereof” (University of Virginia Patent Foundation, priority 2017, dated 2026).

What was measured:
[1] = target: T1, DGKZ (Diacylglycerol kinase zeta) (Homo sapiens, UniProt Q13574); experiment: SILAC LC-MS ATP acyl phosphate probe competition, recombinant DGK-HEK293T lysates; format: binding; details: ATP 1 mM, Ketanserin, Ritanserin 100 μM, RF001 1 mM; for SILAC ratio, DGKZ C1 probe-modified peptide: site C1 (K323); for SILAC ratio, DGKZ DAGKa probe-modified peptide: site DAGKa (K662); for SILAC ratio, DGKZ DAGKc probe-modified peptide: site DAGKc (K500)
T1 construct: expressed in transfected cells; host or cells: SILAC HEK293T
T1 sequence (Q13574 whole entry): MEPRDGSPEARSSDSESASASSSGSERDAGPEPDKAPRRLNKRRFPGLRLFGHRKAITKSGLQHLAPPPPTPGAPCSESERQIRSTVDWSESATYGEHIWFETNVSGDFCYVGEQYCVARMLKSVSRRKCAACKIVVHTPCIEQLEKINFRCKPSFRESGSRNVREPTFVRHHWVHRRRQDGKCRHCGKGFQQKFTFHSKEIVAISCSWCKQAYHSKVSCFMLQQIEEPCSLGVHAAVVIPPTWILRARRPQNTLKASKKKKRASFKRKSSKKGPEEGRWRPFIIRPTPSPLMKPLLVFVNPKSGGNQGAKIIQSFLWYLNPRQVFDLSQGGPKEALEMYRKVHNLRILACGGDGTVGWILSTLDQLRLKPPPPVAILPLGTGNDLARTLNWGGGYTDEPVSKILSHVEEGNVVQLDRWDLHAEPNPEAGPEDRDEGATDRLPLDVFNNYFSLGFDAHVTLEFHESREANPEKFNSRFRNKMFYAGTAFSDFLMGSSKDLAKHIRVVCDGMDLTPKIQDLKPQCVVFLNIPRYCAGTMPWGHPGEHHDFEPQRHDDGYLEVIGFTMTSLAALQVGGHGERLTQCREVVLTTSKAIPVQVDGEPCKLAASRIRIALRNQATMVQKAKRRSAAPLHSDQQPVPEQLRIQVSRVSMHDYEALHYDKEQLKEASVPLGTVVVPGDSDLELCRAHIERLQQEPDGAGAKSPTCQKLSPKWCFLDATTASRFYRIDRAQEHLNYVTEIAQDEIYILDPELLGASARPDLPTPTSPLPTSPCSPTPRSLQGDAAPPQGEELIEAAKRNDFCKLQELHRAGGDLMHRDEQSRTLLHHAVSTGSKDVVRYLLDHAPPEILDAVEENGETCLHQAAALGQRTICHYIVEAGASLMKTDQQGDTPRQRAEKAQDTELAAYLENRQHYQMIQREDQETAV
Text: Recombinant DGK proteins were produced by transient transfection of HEK293T cells with recombinant DNA. pDONR223-DGKK was a gift from William Hahn & David Root (Addgene plasmid #23487). pCSF107mT-GATEWAY-3′-FLAG was a gift from Todd Stukenberg (Addgene plasmid #67619). pCSF107mT-DGKK-FLAG construct was generated by recombination of the Addgene plasmids using the Gateway cloning system (Invitrogen). All other vectors were gifted to Dr. Kevin Lynch (University of Virginia, School of Medicine) by Dr. Kaoru Goto (Yamagata University, School of Medicine) and Dr. Fumio Sakane (Chiba University) and were kindly shared with us: pcDNA3-FLAG-DGKA (rat), pCMV-Tag2B-FLAG-DGKQ (human), pcDNA3-DGKE-3×Flag (human), and pCMV-SPORT6-HA-DGKZ (human). HEK293T cells were plated at a concentration of 400,000 cells in complete DMEM and grown to 50-60% confluency. A polyethyleneimine (PEI) stock solution was prepared (1 mg/mL, pH 7.4) and filter sterilized. Serum-free DMEM (600 μL) was mixed gently with 2.6 μg DNA and 20 μL of sterile PEI (1 mg/mL, pH 7.4) in a sterile microfuge tube. Mixtures were incubated for 30 min at 25° C. The mixture was then added drop-wise to each 10 cm^2 plate, rocked back and forth to mix, and placed back in the incubator. Cell pellets were harvested after two full days of growth, snap-frozen in liquid N2, and stored at −80° C. until use. Recombinant proteins were produced by transient transfection in SILAC HEK293T cells using the procedure described above, except that cells were plated at a concentration of 1×10^6 cells per 10 cm^2 plate and grown to ˜70% confluency prior to introducing transfection mixture.
Proteomes were diluted to 2 mg/ml in kinase buffer. The light and heavy proteomes (0.5 mg, 250 μL total reaction volume) were pre-treated with vehicle or compound, respectively (5 μL, DMSO (light) or 50× stock in DMSO (heavy)), mixed gently, and incubated at 25° C. for 30 min. […] After incubation, matched light and heavy proteomes were transferred and mixed in a 1:1 ratio in a two-dram vial containing 4:1:3 MeOH/CHCl3/H2O (2 mL MeOH, 500 AL CHCl3, 1.5 mL H2O) for extraction of proteins to remove excess probe, quickly vortexed, and centrifuged at 1,400×g for 3 min to pellet protein. Organic and aqueous layers were removed using a Pasteur pipette, and the protein pellet was transferred to a screw-top tube in 600 μL MeOH. A second extraction was performed by adding CHCl3 (150 μL) and H2O (600 μL) to each sample, vortexed, and centrifuged at 1,400×g for 3 min to pellet protein. Organic and aqueous layers were removed by pipetting. MeOH added to pellet (600 μL) and pellets were re-suspended by sonication (3×1 sec pulse, 20% amplitude) for a final extraction. Samples were then centrifuged at 17,000×g for 5 min to pellet protein and MeOH was removed by pipetting. The pellets were re-suspended in 10 M urea/25 mM ammonium bicarbonate ([…]), brought to a final volume of 1 mL with 25 mM ammonium bicarbonate, reduced with 10 mM DTT for 15 min at 65° C. allowed to cool, and then alkylated with 40 mM iodoacetamide for 30 min at 25° C. in the dark. To desalt the samples, each was transferred to a two-dram glass vial, and to the vial 4:1:2 MeOH/CHCl3/H2O (2 mL MeOH, 500 AL CHCl3, 1 mL H2O) was added. The vials were vortexed quickly, spun at 1.400×g for 3 min to pellet protein, and aqueous and organic layers were removed using a Pasteur pipette. The resulting protein pellet was transferred to a screw-top tube in 600 μL MeOH, and then CHCl3 (150 μL) and HO (600 μL) were added to extract protein a second time. The samples were vortexed quickly, centrifuged at 1,400×g to pellet protein, and the aqueous and organic layers were removed by pipetting. Resulting protein pellet was suspended in MeOH (600 μL) via sonication (3×1 sec pulse, 20% amplitude), centrifuged at 17,000×g for 5 min to pellet protein, and MeOH removed by pipetting. […]

H82 cells [2] = experiment: Cell Counts (Trypan Blue); format: cell-based; details: 48 hrs; ritanserin 10 μM
Procedure: (§1) Cell Counts. Tumor cells were plated in 60 mm plates at a density of 100.000 cells/mL (A549. H1650) or 200,000 cells/mL (H82) and a volume of 3.5 mL/plate. Cells were treated with inhibitors at the indicated concentrations (final DMSO concentration of 0.5%) for 48 hrs at 37° C. under 5% CO2. After incubation, adherent cells were washed and detached with trypsin and all cells were collected and concentrated by spinning at 400×g for 3 min followed by aspiration of media. Cells were resuspended in […] Trypan Blue and 10 μL of this solution counted via a hemocytometer. Dead cells were excluded from all counts. Data were normalized to DMSO-treated wells and significance values determined with one-way ANOVA.

H1650 cells [3] = experiment: Cell Counts (Trypan Blue); format: cell-based; details: 48 hrs; ritanserin 10 μM
Procedure: as §1

A549 cells [4] = experiment: Cell Counts (Trypan Blue); format: cell-based; details: 48 hrs; ritanserin 10 μM
Procedure: as §1

H82 cells [5] = experiment: WST-1 Cell Proliferation Assay; format: cell-based; details: for cell viability (WST-1), words: ritanserin, ketanserin 5-50 μM, staurosporine 1 μM
Procedure: (§2) WST-1 Cell Proliferation Assays. Tumor cells were plated in transparent tissue-culture treated 96-well plates at a density of 100,000 cells/mL (A549, H1650) or 200,000 cells/mL (H82) in a volume of 100 μL per well. Cells were treated with dimethyl sulfoxide (DMSO) vehicle or inhibitors dissolved in DMSO at the indicated concentrations (final DMSO concentration of 0.5%). Cells were allowed to grow for indicated times at 37° C. under 5% CO2. Afterwards, equal parts of WST-1 developer reagent and electron mediator solution were mixed and 10 μL of the resulting solution (‘WST-1 reagent’) were added to each well. Plates were shaken in an orbital shaker for 60 s and then returned to the incubator for two hrs. Plates were again shaken followed measurement of absorbance at 450 nm. Data were normalized to DMSO-treated wells and significance values determined with one-way ANOVA.

H1650 cells [6] = experiment: WST-1 Cell Proliferation Assay; format: cell-based; details: for cell viability (WST-1), words: ritanserin, ketanserin 5-50 μM, staurosporine 1 μM
Procedure: as §2

A549 cells [7] = experiment: WST-1 Cell Proliferation Assay; format: cell-based; details: for cell viability (WST-1), words: ritanserin, ketanserin 5-50 μM, staurosporine 1 μM
Procedure: as §2

SILAC ratio, DGKZ C1 probe-modified peptide [1]	SILAC ratio, DGKZ DAGKa probe-modified peptide [1]	SILAC ratio, DGKZ DAGKc probe-modified peptide [1]	Structure (SMILES)	cell killing (live cell counts) (H82 cells [2])	cell killing (live cell counts) (H1650 cells [3])	cell killing (live cell counts) (A549 cells [4])	cell viability (WST-1), words (H82 cells [5])	cell viability (WST-1), words (H1650 cells [6])	cell viability (WST-1), words (A549 cells [7])	cell death (WST-1) (H82 cells [5]; 5 μM, two days) [%]	cell death after 1 day (WST-1) (H82 cells [5]; 25 μM, 1 day) [%]	inhibition at 25 µM (H82 cells [5]; Homo sapiens, NCI-H82, 48 h, 25 μM, two days, read-out: inhibition of cell growth (WST-1)) [%]	cell death (WST-1) (H1650 cells [6]; 5 μM, two days)	cell death after 1 day (WST-1) (H1650 cells [6]; 25 μM, 1 day) [%]	inhibition at 25 µM (H1650 cells [6]; Homo sapiens, NCI-H1650, 48 h, 25 μM, two days, read-out: inhibition of cell growth (WST-1)) [%]	cell death (WST-1) (A549 cells [7]; 5 μM, two days)	cell death after 1 day (WST-1) (A549 cells [7]; 25 μM, 1 day) [%]	inhibition at 25 µM (A549 cells [7]; Homo sapiens, A549, 48 h, 25 μM, two days, read-out: inhibition of cell growth (WST-1)) [%]
1.3	1.4	1.5	O=C(c1ccc(F)cc1)C1CCN(CCn2c(=O)[nH]c3ccccc3c2=O)CC1 [Ketanserin]	not ketanserin	not ketanserin	not ketanserin	lack of activity	lack of activity	lack of activity									
1.1	1.1	0.9	Fc1ccc(C(=C2CCNCC2)c2ccc(F)cc2)cc1 [RF001, 4-(Bis(4-fluorophenyl)methylene) piperidine]															

Structure (SMILES)	SILAC ratio, DGKZ C1 probe-modified peptide [1]	SILAC ratio, DGKZ DAGKa probe-modified peptide [1]	SILAC ratio, DGKZ DAGKc probe-modified peptide [1]	cell killing (live cell counts) (H82 cells [2])	cell killing (live cell counts) (H1650 cells [3])	cell killing (live cell counts) (A549 cells [4])	cell viability (WST-1), words (H82 cells [5])	cell viability (WST-1), words (H1650 cells [6])	cell viability (WST-1), words (A549 cells [7])	cell death (WST-1) (H82 cells [5]; 5 μM, two days) [%]	cell death after 1 day (WST-1) (H82 cells [5]; 25 μM, 1 day) [%]	inhibition at 25 µM (H82 cells [5]; Homo sapiens, NCI-H82, 48 h, 25 μM, two days, read-out: inhibition of cell growth (WST-1)) [%]	cell death (WST-1) (H1650 cells [6]; 5 μM, two days)	cell death after 1 day (WST-1) (H1650 cells [6]; 25 μM, 1 day) [%]	inhibition at 25 µM (H1650 cells [6]; Homo sapiens, NCI-H1650, 48 h, 25 μM, two days, read-out: inhibition of cell growth (WST-1)) [%]	cell death (WST-1) (A549 cells [7]; 5 μM, two days)	cell death after 1 day (WST-1) (A549 cells [7]; 25 μM, 1 day) [%]	inhibition at 25 µM (A549 cells [7]; Homo sapiens, A549, 48 h, 25 μM, two days, read-out: inhibition of cell growth (WST-1)) [%]
Cc1nc2sccn2c(=O)c1CCN1CCC(=C(c2ccc(F)cc2)c2ccc(F)cc2)CC1 [Ritanserin]	1.4	1.8	1.2	~70%	~70%	~70%	Concentration-dependent decreases in viability	Concentration-dependent decreases in viability	Concentration-dependent decreases in viability	~50	> 50	> 70	5-15%	> 50	> 70	5-15%	> 50	> 70
